How the values were obtained:
Assay in all cases: SPR (Biacore […]), equilibrium fit to […] model
Format in all cases: binding
[1] = molecular target: T1, BGL (Boletopsis grisea lectin), recombinant wild-type rBGL (Boletopsis grisea, UniProt A0A1L2F5J1)
T1 construct: full-length 143 amino acid ORF (GenBank KT315924), expressed in E. coli, lacking N-terminal Met

[2] = molecular target: T2, BGL (Boletopsis grisea lectin), G49N mutant (Boletopsis grisea, UniProt A0A1L2F5J1, G49N)
T2 construct: full-length BGL ORF expressed in E. coli
T2 sequence (A0A1L2F5J1 entry or part of it G49N): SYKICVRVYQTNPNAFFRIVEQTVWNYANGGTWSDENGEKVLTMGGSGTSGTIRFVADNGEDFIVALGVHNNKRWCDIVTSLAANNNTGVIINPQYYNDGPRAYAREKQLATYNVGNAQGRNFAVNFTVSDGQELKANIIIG

[3] = molecular target: T3, BGL (Boletopsis grisea lectin), H71E mutant (Boletopsis grisea, UniProt A0A1L2F5J1, H71E)
T3 construct: full-length BGL ORF expressed in E. coli
T3 sequence (A0A1L2F5J1 entry or part of it H71E): as the sequence (A0A1L2F5J1 entry or part of it G49N) above

[4] = molecular target: T4, BGL (Boletopsis grisea lectin), S48K mutant (Boletopsis grisea, UniProt A0A1L2F5J1, S48K)
T4 construct: full-length BGL ORF expressed in E. coli
T4 sequence (A0A1L2F5J1 entry or part of it S48K): as the sequence (A0A1L2F5J1 entry or part of it G49N) above

T1 sequence (A0A1L2F5J1 2-143): as the sequence (A0A1L2F5J1 entry or part of it G49N) above

`CC(=O)N[C@H]1C(O)O[C@H](CO)[C@@H](O)[C@@H]1O` (stereo partly shown) [GlcNAc] was tested, and the Kd [1] was 1086 ± 8 µM, the Kd [2] was 910 ± 10 µM and the Kd [3] was 2330 ± 80 µM. It also gave a Kd [4] of 1010 ± 20 µM.
